Data: the supplement of paper PMC10307832

These cell lines were tested with c1ccc2c(CCNc3ccc(Nc4ccncc4)cc3)c[nH]c2c1 [Serdemetan] + Cc1cc(Nc2cc(N3CCN(C)CC3)nc(Sc3ccc(NC(=O)C4CC4)cc3)n2)n[nH]1 [Tozasertib] (partner 0.1 µM) (assay: relative viability (nuclei count vs DMSO), 5 days (fraction); higher = more cells survive). Conditions: first compound 4 µM.
In short: (§1)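 Dosing by pin tool came one day after lung cancer cell lines were seeded in 1536-well plates, using either one drug or a fixed anchor-drug dose plus five library-drug doses (not always all listed) in √10 steps. After 5 days, nuclei were counted on 4× images. Relative viability is treated-well nuclei count divided by vehicle-well nuclei count, and values are medians of duplicate plates.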

Cell Line	relative viability
BEN	0.469
NCI-H1648	0.299
HCC-78	0.303

The cell lines below were run with C1CC(C2=C(C1)C3=C(N2)C=CC(=C3)Cl)C(=O)N [Selisistat] + Cc1nc(Nc2ncc(C(=O)Nc3c(C)cccc3Cl)s2)cc(N2CCN(CCO)CC2)n1 [Dasatinib] (partner 0.075 µM) in the same assay as above. Conditions: first compound 0.4 µM.
In short: as §1

Cell Line	relative viability
NCI-H522	0.736
NCI-H1623	0.518
NCI-H727	0.468
NCI-H1650	0.298
NCI-H1993	0.629
SW 1573	0.567
NCI-H838	0.273
LCLC-103H	0.527
NCI-H520	0.185
NCI-H2126	0.705
EMC-BAC-2	0.355
NCI-H2085	0.262
HCC-366	0.591
NCI-H1666	0.799
NCI-H596	0.673
LK-2	0.211
NCI-H2087	1.08

Cell Line	relative viability
NCI-H2342	0.312
SK-MES-1	0.451
H3255	0.385
COR-L23	0.523
COR-L 105	0.339
LOU-NH91	0.611
ChaGo-K-1	0.562
NCI-H2170	0.468
NCI-H2405	0.221
HOP-62	0.677
SW 900	0.664
LU99A	0.46
BEN	0.308
HCC-78	0.486
NCI-H1792	0.806
NCI-H1563	0.496

Same assay, conditions: first compound 1.265 µM

Cell Line	relative viability
NCI-H522	0.644
NCI-H1623	0.587
NCI-H727	0.419
NCI-H1650	0.297
NCI-H1993	0.655
SW 1573	0.385
NCI-H838	0.293
LCLC-103H	0.475
NCI-H520	0.201
NCI-H2126	0.597
EMC-BAC-2	0.367
NCI-H2085	0.219
HCC-366	0.606
NCI-H1666	0.763
NCI-H596	0.53
LK-2	0.307
NCI-H2087	0.837

Cell Line	relative viability
NCI-H2342	0.339
SK-MES-1	0.294
H3255	0.369
COR-L23	0.583
COR-L 105	0.357
LOU-NH91	0.54
ChaGo-K-1	0.551
NCI-H2170	0.47
NCI-H2405	0.189
HOP-62	0.626
SW 900	0.409
LU99A	0.634
BEN	0.269
HCC-78	0.628
NCI-H1792	0.805
NCI-H1563	0.443

Same assay, conditions: first compound 4 µM

Cell Line	relative viability
NCI-H522	0.784
NCI-H1623	0.41
NCI-H1650	0.295
NCI-H1993	0.501
SW 1573	0.456
NCI-H838	0.263
LCLC-103H	0.456
NCI-H520	0.327
NCI-H2126	0.525
EMC-BAC-2	0.378
NCI-H2085	0.204
HCC-366	0.297
NCI-H1666	0.734
NCI-H596	0.493
LK-2	0.322
NCI-H2342	0.297
SK-MES-1	0.293
H3255	0.309
COR-L23	0.579
LOU-NH91	0.515
ChaGo-K-1	0.563
NCI-H2170	0.521
NCI-H2405	0.178
HOP-62	0.507
SW 900	0.641
LU99A	0.606
BEN	0.233
HCC-78	0.293
NCI-H1563	0.319

Same assay, conditions: first compound 12.65 µM

Cell Line	relative viability
NCI-H522	0.803
NCI-H1623	0.551
NCI-H727	0.454
NCI-H1650	0.286
NCI-H1993	0.672
SW 1573	0.616
NCI-H838	0.279
LCLC-103H	0.507
NCI-H520	0.216
NCI-H2126	0.601
EMC-BAC-2	0.317
NCI-H2085	0.27
HCC-366	0.599
NCI-H1666	0.594
NCI-H596	0.707
LK-2	0.266
NCI-H2087	0.82

Cell Line	relative viability
NCI-H2342	0.33
SK-MES-1	0.346
H3255	0.331
COR-L23	0.529
COR-L 105	0.297
LOU-NH91	0.534
ChaGo-K-1	0.539
NCI-H2170	0.563
NCI-H2405	0.204
HOP-62	0.642
SW 900	0.496
LU99A	0.546
BEN	0.353
HCC-78	0.421
NCI-H1792	0.677
NCI-H1563	0.438

Same assay, conditions: first compound 40 µM

Cell Line	relative viability
NCI-H522	0.759
NCI-H1623	0.57
NCI-H727	0.498
NCI-H1650	0.313
NCI-H1993	0.589
SW 1573	0.499
NCI-H838	0.285
LCLC-103H	0.548
NCI-H520	0.195
NCI-H2126	0.616
EMC-BAC-2	0.315
NCI-H2085	0.257
HCC-366	0.588
NCI-H1666	0.525
NCI-H596	0.545
LK-2	0.287
NCI-H2087	0.777

Cell Line	relative viability
NCI-H2342	0.363
SK-MES-1	0.264
H3255	0.428
COR-L23	0.494
COR-L 105	0.32
LOU-NH91	0.598
ChaGo-K-1	0.592
NCI-H2170	0.63
NCI-H2405	0.276
HOP-62	0.664
SW 900	0.791
LU99A	0.655
BEN	0.295
HCC-78	0.414
NCI-H1792	0.498
NCI-H1563	0.549

Each cell line was assayed with C1CC(C2=C(C1)C3=C(N2)C=CC(=C3)Cl)C(=O)N [Selisistat] + CCNC(=O)c1noc(-c2cc(C(C)C)c(O)cc2O)c1-c1ccc(CN2CCOCC2)cc1 [Luminespib] (partner 0.01 µM) in the same assay as above. Conditions: first compound 0.4 µM.
In short: as §1

Cell Line	relative viability
NCI-H522	1.07
NCI-H1623	0.701
NCI-H727	0.389
NCI-H1650	0.17
NCI-H1993	0.868
SW 1573	0.154
NCI-H838	0.313
LCLC-103H	1.06
NCI-H520	0.233
NCI-H2126	0.929
EMC-BAC-2	1.12
NCI-H2085	0.569
NCI-H1666	1.05
NCI-H596	0.981
LK-2	0.193
NCI-H2087	0.157

Cell Line	relative viability
NCI-H2342	0.725
SK-MES-1	1
H3255	0.807
COR-L23	0.709
COR-L 105	0.464
LOU-NH91	0.269
ChaGo-K-1	0.586
NCI-H2170	0.653
NCI-H2405	0.745
HOP-62	0.951
HCC-44	1.05
SW 900	0.175
LU99A	0.258
BEN	0.429
NCI-H1792	0.406
NCI-H1563	0.473

Same assay, conditions: first compound 1.265 µM

Cell Line	relative viability
NCI-H522	1.1
NCI-H1623	0.504
NCI-H727	0.231
NCI-H1650	0.192
NCI-H1993	0.685
SW 1573	0.135
NCI-H838	0.332
LCLC-103H	0.936
NCI-H520	0.255
NCI-H2126	0.972
EMC-BAC-2	1.07
NCI-H2085	0.406
NCI-H1666	1
NCI-H596	0.938
LK-2	0.161
NCI-H2087	0.139

Cell Line	relative viability
NCI-H2342	0.668
SK-MES-1	0.906
H3255	0.79
COR-L23	0.715
COR-L 105	0.608
LOU-NH91	0.322
ChaGo-K-1	0.581
NCI-H2170	0.726
NCI-H2405	0.691
HOP-62	0.967
SW 900	0.175
LU99A	0.214
BEN	0.242
NCI-H1792	0.52
NCI-H1563	0.523

Same assay, conditions: first compound 4 µM

Cell Line	relative viability
NCI-H522	0.789
NCI-H1623	0.315
NCI-H1650	0.178
NCI-H1993	0.831
SW 1573	0.222
NCI-H838	0.349
LCLC-103H	0.926
NCI-H520	0.232
NCI-H2126	0.872
EMC-BAC-2	1.14
NCI-H2085	0.47
NCI-H1666	0.969
NCI-H596	1.08
LK-2	0.182
NCI-H2342	0.625
SK-MES-1	0.802
H3255	0.948
COR-L23	0.641
LOU-NH91	0.348
ChaGo-K-1	0.648
NCI-H2170	0.76
NCI-H2405	0.556
HOP-62	0.886
SW 900	0.179
LU99A	0.301
BEN	0.33
NCI-H1563	0.54

Same assay, conditions: first compound 12.65 µM

Cell Line	relative viability
NCI-H522	1.17
NCI-H1623	0.644
NCI-H727	0.268
NCI-H1650	0.202
NCI-H1993	1.06
SW 1573	0.206
NCI-H838	0.392
LCLC-103H	0.863
NCI-H520	0.233
NCI-H2126	0.947
EMC-BAC-2	1.17
NCI-H2085	0.452
NCI-H1666	0.995
NCI-H596	0.668
LK-2	0.198
NCI-H2087	0.147

Cell Line	relative viability
NCI-H2342	0.923
SK-MES-1	0.622
H3255	0.773
COR-L23	0.655
COR-L 105	0.909
LOU-NH91	0.336
ChaGo-K-1	0.526
NCI-H2170	0.843
NCI-H2405	0.659
HOP-62	0.88
HCC-44	1.12
SW 900	0.16
LU99A	0.291
BEN	0.207
NCI-H1792	0.536
NCI-H1563	0.528

Same assay, conditions: first compound 40 µM

Cell Line	relative viability
NCI-H522	1.08
NCI-H1623	0.503
NCI-H727	0.349
NCI-H1650	0.191
NCI-H1993	0.846
SW 1573	0.228
NCI-H838	0.311
LCLC-103H	1.06
NCI-H520	0.206
NCI-H2126	0.965
EMC-BAC-2	1.08
NCI-H2085	0.4
NCI-H1666	0.878
NCI-H596	0.775
LK-2	0.188
NCI-H2087	0.158

Cell Line	relative viability
NCI-H2342	0.742
SK-MES-1	0.788
H3255	0.819
COR-L23	0.61
COR-L 105	0.775
LOU-NH91	0.406
ChaGo-K-1	0.61
NCI-H2170	0.696
NCI-H2405	0.766
HOP-62	1.01
HCC-44	1.16
SW 900	0.177
LU99A	0.223
BEN	0.383
NCI-H1792	0.399
NCI-H1563	0.541
